Patent publication US11795135B2, “Prostacyclin compounds, compositions and methods of use thereof” (Insmed Incorporated, priority 2013, dated 2023)
“Also recorded” adds a separate entry of the source.

Key:
CHO-K1 cells = experiment: CHO-K1 cell proliferation assay (Presto Blue); details: unformulated alkyl esters, 48 hour incubation
Description: CHO-K1 cells were harvested when the cell monolayer was 50-90% confluent (use passage 4-11). Media was aspirated out of the flask, and cells were rinsed with 2 mL of F12 media. Next, 1 mL of pre-warmed (37° C.) 0.25% trypsin-EDTA (Life Technologies, Cat #: 25300054) was added, and cells were dislodged from the flask by tapping it on the side. Complete growth media (F12 (Life Technologies, Cat #: 31765092)+10% FBS (Hyclone, Cat #: SH30071.03)+1× Pen-Strep (Life Technologies, cat #15140-122) was then added at a volume of 10 mL. Cells were centrifuged at 250×g for 5 minutes at room temperature, and the media was aspirated. The cell pellet was resuspended in 10 mL complete growth media. Cell number was determined using a hemacytometer. Cells were then seeded at 2000 cells per well of a 96-well plate in 100 μL of complete growth media. The plate was incubated overnight at 37° C. and 5% CO2 in a water-jacketed incubator.
The next day, 80 μL of fresh complete media was added to each well, and CHO-K1 cells were challenged with treprostinil compound and composition treatments. The working solutions were prepared at 10× concentration, and following 2 fold serial dilutions, 20 μL aliquots were added per well to arrive at a final 1× concentration. Following a 48 hour incubation at 37° C. and 5% CO2 in a water-jacketed incubator, the inhibitory effect on cell proliferation was determined. Plates were analyzed using 20 μL of Presto Blue reagent (Life Technologies, cat #: A13262) per well. The reagent was mixed, and plates were incubated for 1 hour at 37° C. and 5% CO2 in a water-jacketed incubator. Plates were read using either a CytoFluor Series 4000 (PerSeptive BioSystems) or Synergy Neo microplate reader (BioTek) with emission λ: 590 nm and excitation λ: 560 nm.
at concentrations ranging from 0.55 μM to 125 μM. Following a 48 hour incubation period, the inhibitory effect of the treprostinil derivative compositions on cell proliferation was determined.
C2, C3, C4, C5, C6, C8, C10 or Cu straight chain alkyl, at dosages ranging from 0.098 μM to 25 μM. Following a 48 hour incubation period, the inhibitory effect on cell proliferation was determined.
Following a 72 hour incubation period, the inhibitory effect on cell proliferation was determined. Following a 48 hour incubation period, the inhibitory effect on cell proliferation was determined.
Similarly, CHO-K1 cells were challenged with the treprostinil compositions T612 (R2=C2), T613 (R2=C8) at concentrations ranging from 1.41 μM to 180 μM.

[1] = Treprostinil alkyl ester conversion to treprostinil in dog lung tissue homogenate; format: in vitro ADME; details: 37° C., 200 nM, 4 hours, 10 mg/mL of protein
Description: (§1) Treprostinil alkyl ester conversion to treprostinil was also measured in the presence of rat, dog and monkey lung tissue homogenate at 37° C. Here, data were calculated based on fit of exponential increase to the maximum (experiments performed in duplicate). The results of this study are provided below in Table 2A and FIG. 37. […] Both FIG. 37 experiments (left and right graphs) were performed in duplicate and the lines represent nonlinear exponential regression assuming 1 phase decay.

[2] = Treprostinil alkyl ester conversion to treprostinil in rat lung tissue homogenate; format: in vitro ADME; details: 37° C., 200 nM, 4 hours, 10 mg/mL of protein
Description: as §1

[3] = Treprostinil alkyl ester conversion to treprostinil in monkey lung tissue homogenate; format: in vitro ADME; details: 37° C., 200 nM, 4 hours, 10 mg/mL of protein
Description: as §1

[4] = system: Rat alveolar NR8383 cells; experiment: NR8383 cell proliferation assay (Presto Blue); format: cell-based; details: unformulated alkyl esters, 72 hour incubation
Description: Rat alveolar NR8383 cells were harvested when the monolayer was 50-90% confluent (use passage 5-11). Because the NR8383 cells include both adherent and non-adherent cells, media was transferred to a 50 mL Falcon tube. To obtain the cells remaining in the flask, 2 mL of plain media was added, and the remaining cells were scraped out of the 75 cm^2 flask with a cell scraper and added to the 50 mL tube. […] SH30071.03)+1×Pen-Strep (Life Technologies, cat #: 15410-122)). Cell number was determined using a hemacytometer. […] Measurements and calculations were made as described above for the CHO-K1 cells.

[5] = Tolerability and pharmacokinetics in rats, T748 inhaled for 14 consecutive days; format: in vivo, rat; details: T748, 0.6-18 μg/kg
Description: Body weights were recorded daily and organ weights (lungs, heart, liver) were measured 24 hr. after the last drug dose.

EP2 prostanoid receptor = target: T1, EP2 prostanoid receptor (Homo sapiens, UniProt P43116); experiment: GloSensor cAMP assay in CHO-K1 cells co-transfected with the EP2 receptor; format: cell-based; details: for Max cAMP level (Fold): CHO-K1 cells
T1 construct: host or cells: CHO-K1
T1 sequence (P43116 whole entry): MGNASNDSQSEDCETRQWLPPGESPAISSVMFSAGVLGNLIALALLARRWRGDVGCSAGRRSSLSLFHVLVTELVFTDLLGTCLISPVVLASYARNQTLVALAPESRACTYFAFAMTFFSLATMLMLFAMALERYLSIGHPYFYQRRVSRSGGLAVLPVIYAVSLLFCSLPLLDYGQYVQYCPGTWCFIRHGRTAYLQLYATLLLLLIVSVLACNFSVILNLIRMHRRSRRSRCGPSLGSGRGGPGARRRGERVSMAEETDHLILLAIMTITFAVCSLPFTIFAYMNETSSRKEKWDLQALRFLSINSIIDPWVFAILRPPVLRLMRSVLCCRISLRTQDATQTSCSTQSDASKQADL
From the text: cAMP is a second messenger involved in signal transduction of G-protein coupled receptors (GPCRs) acting through Gα-s and Gα-i proteins. Because the treprostinil receptor is a GPCR, the assay provides an indication of whether the respective prostacyclin compound (or metabolite thereof) binds its receptor and activates the GPCR cell signaling cascade. The GloSensorTM assay harnesses a genetically modified form of firefly luciferase into which a cAMP-binding protein moiety has been inserted. Upon binding of cAMP, a conformational change is induced leading to increased light output. The EP2 prostanoid receptor was co-transfected with the GloSensorTM plasmid (Promega) into CHO-K1 cells as follows. CHO-K1 cells were harvested when the monoloayer was at 50-90% confluence. First, cells were washed with 5 mL PBS. […] The media was aspirated, and the cell pellet was resuspended in 10 mL of growth media. Cell number was determined using a hemacytometer. Each well of a culture treated 96 well flat bottom plate (Costar, Cat #: 3917) was seeded with 1×10^4 cells per 100 μL antibiotic-free growth media. […] For small scale transfections of up to 20 wells, the pGLoSensor-22F cAMP plasmid (Promega, Cat #: E2301) (2 μg): (EP2) (10 ng) (Origene, Cat #: SC126558):pGEM-3Zf(+) (10 ng) (Promega, Cat #: P2271) ratio was diluted to a final concentration of 12.6 ng/μL (total plasmid) in Opti-MEM I reduced-serum medium (Life Technologies, Cat #: 1985062). Next, 6 μL of FuGENE HD transfection reagent (Promega, Cat #: E2311) was added to 160 μL of diluted plasmid and mixed carefully by gentle pipetting. The complex was incubated at room temperature for 0 to 10 minutes, and then 8 μL of the complex was added per well of a 96 well white assay plate (Costar, Cat #: 3917) and gently mixed without disturbing the cell monolayer. […] Following incubation, cells were treated and analyzed. For larger scale transfections, the aforementioned steps were scaled up accordingly, and cells were frozen following the last incubation. In order to prepare frozen transfected CHO-K1 cells, the media was aspirated from culture flasks and cells were rinsed with 5 mL PBS. […] Cell number was determined using a hemacytometer. The media was aspirated, and the cell pellet was resuspended in freezing media (Millipore, cat #: S-002-5F) at 2.5×10^6 cells/vial. Transfected cells were incubated overnight at -80° C. before transfer to liquid nitrogen for long term storage. […] In preparation for cAMP measurement, the cells were equilibrated with the GloSensor cAMP reagent prior to treatment. For equilibration, the medium was carefully removed from the individual well. Next, 100 μL of equilibration medium ([…] of Glosensor Reagent stock solution (Promega, Cat #: E291), 10% FBS (Hyclone, Cat #: SH30071.03) and 88% CO2 independent medium (Life Technologies, Cat #: 18045088)) was added per well of the 96-well plate, and added to the side of each well. The plate was then incubated for 2 hours at room temperature. A first pre-read measurement was taken using a microplate reader (MicroLumat Plus). Plates were incubated for an additional 10 minutes at room temperature, followed by a second pre-read measurement. […] Following treatment, each plate was read every 5 minutes for the duration of the assay using a microplate reader (MicroLumat Plus). In order to determine the fold change in cAMP relative to the control, the transfection efficiency was first determined by dividing the second pre-read measurement by the average of the corresponding pre-read measurements. Next, the normalized relative light units (RLUs) of the samples were determined by dividing the plate read measurement by the transfection efficiency. The fold change in cAMP relative to the control was then determined by dividing the normalized RLU of the samples by the normalized RLU of the control. The cAMP assay was validated using free treprostinil. […] Luminescence was then measured at room temperature. […]

[6] = dog, in vivo
Description: Twelve beagle dogs of either sex were randomly assigned to different inhaled doses of treprostinil in PBS or the compound of Formula (A) wherein
Formulations were nebulized with an Aeroneb nebulizer (MMAD: 2.5-4 μm) delivered into a 500 ml expansion chamber. Formulations were nebulized for 2 min at ventilator settings of 90 ml/breath, 15 breaths/min (delivered volume=2.7 L) and collected on a filter. Drug amount (m) on the filter was measured by HPLC to calculate the concentration of drug delivered through the ventilator circuit (μg/L).
Dosimetry was performed in propofol-anesthetized dogs in which nebulized drugs were introduced into a mixing chamber interposed on the inspiratory limb of a canine respirator. Technical trials were performed before each experiment to measure the concentration of drug (μg/L) delivered for each breath. The inhaled drug dose (μ/kg) was calculated using the formula: Inhaled Drug Dose (μg/kg)=Drug Conc. (μg/L)×Minute Ventilation (L/min.)×Time (min.)/Body Weight (kg). […] Clinical signs were monitored over this 72 hr. period.
Dosimetry was performed in propofol-anesthetized, artificially ventilated dogs in which nebulized drugs were introduced into a mixing chamber interposed on the inspiratory limb of the respirator. […] Clinical signs (cough, rapid shallow breathing, emesis and pale gums) were also monitored.

[7] = Treprostinil pharmacokinetics in anaesthetised, ventilated rats after nebulized dosing; format: in vivo, rat; details: nebulized TRE solution
Description: Male Sprague Dawley rats were anaesthetised and prepared with endotracheal tube for ventilation. The right femoral vein was cannulated to facilitate blood collections. Terminal lung samples were taken for analysis only 6 hours after dosing. […] Systemic blood pressure (mSAP), heart rate (HR), and arterial oxygen saturation (SaO2). Physiologic parameters were measured during normoxia (fraction of inspired oxygen [FrO2]=0.21, SaO2≈90%) and for 2 to 3 hours during hypoxia (FrO2=0.10, SaO2≈50%).

[8] = system: Cough Reflex in Guinea Pigs; experiment: Cough reflex in guinea pigs (whole body plethysmograph); format: in vivo, guinea pig
Description: T623 has the following components:
Aerosols were generated with an Ultra-Neb Pro nebulizer (nebulizer output 0.36 mL/min.) that was mixed with inspired air delivered at a rate of 2 L/min. The PBS or drugs were delivered for 10 min. and the number of coughs recorded during and for 20 min. after the delivery. Coughs were detected by visual observations, plethysmograph recordings and cough sounds.

[9] = nebulized concentration of 30 μg/mL

CCCCCCCCOC(=O)COc1cccc2c1C[C@H]1C[C@@H](O)[C@H](CC[C@@H](O)CCCCC)[C@H]1C2 [Compound C8-TR, treprostinil octyl ester]
Effect on cell proliferation, CHO-K1 Cells (0.195 μM-25 μM) (CHO-K1 cells): showed inhibition of cell proliferation
Rate of treprostinil alkyl ester conversion [1]: 49.8 nmOL/h * g of protein
Rate of treprostinil alkyl ester conversion [2]: 32.5 nmOL/h * g of protein
Rate of treprostinil alkyl ester conversion [3]: 17.3 nmOL/h * g of protein
Effect on cell proliferation, NR8383 Cells (0.195 μM-25 μM) [4]: showed some inhibition of cell proliferation

CCCCCCCCCCCCOC(=O)COc1cccc2c1C[C@H]1C[C@@H](O)[C@H](CC[C@@H](O)CCCCC)[C@H]1C2 [Compound C12-TR, dodecyl-treprostinil]
Effect on cell proliferation, CHO-K1 Cells (0.195 μM-25 μM) (CHO-K1 cells): No detectable cell inhibition
Rate of treprostinil alkyl ester conversion [1]: 2.2 nmOL/h * g of protein
Rate of treprostinil alkyl ester conversion [2]: 1.1 nmOL/h * g of protein
Rate of treprostinil alkyl ester conversion [3]: 0.6 nmOL/h * g of protein
Effect on cell proliferation, NR8383 Cells (0.195 μM-25 μM) [4]: No detectable cell inhibition

CCCCCCCCCCCCCCCCOC(=O)COc1cccc2c1C[C@H]1C[C@@H](O)[C@H](CC[C@@H](O)CCCCC)[C@H]1C2 [Compound C16-TR, hexadecyl-treprostinil]
tolerability, body weights and organ weights [5]: no tolerability issues or significant changes (relative to PBS) in body weights and organ weights; also recorded: well tolerated with no evidence of body weight and organ weight change
ranking of activity of the treprostinil compounds (EP2 prostanoid receptor; kinetic profile, 10 μM and 5 μM, FIG. 21): C12-TR>C14-TR>5-nonanyl-TR>C16-TR

CCCCC[C@H](O)CC[C@@H]1[C@H]2Cc3cccc(OCC(=O)O)c3C[C@H]2C[C@H]1O [Treprostinil, (1R,2R,3aS,9aS)-[[2,3,3a,4,9,9α-hexahydro-2-hydroxy-1-[(3S)-3-hydroxyoctyl]-1H-benz[f]inden-5-yl]oxy]acetic acid]
period over which plasma levels of treprostinil were sustained [6]: disappeared within a few hours
cAMP levels sustained for (EP2 prostanoid receptor; 10 μM, composition, FIG. 3A): not exhibited
Max cAMP level (Fold) (EP2 prostanoid receptor; Effect of nebulization (FIG. 6), head prints (5 μM)): ~15 Fold
EC50 (EP2 prostanoid receptor; cAMP response in CHO-K1 cells, 4.5 hr incubation): 0.2 µM
Max cAMP level (Fold) (EP2 prostanoid receptor; compositions shown in FIG. 3, 8 hours time course): ~16 Fold
Max cAMP level (Fold) (EP2 prostanoid receptor; compositions shown in FIG. 4, 5 μM, 8 hours time course): ~14 Fold
time beyond which measurable levels of TRE were not seen in the blood plasma [7]: ≤ 4 h
exposure concentration consistently evoking cough ([8]; 1-300 μg/ml tested): ≥ 30 µg/mL
cough bouts [8, 9]: 1-4
cough response [8, 9]: consistent cough in 7 of 7 guinea pigs
total number of coughs ([8]; nebulized concentration of 30 μg/mL, 10 min delivery + 20 min): 36±9 coughs
